{"source": "patent US20020026034A1", "about": "“3-AMINOETHYL-N-AMIDINO-2,5-DIHYDROPYRROLE DERIVATIVES HAVING ARGININE MIMETIC PROPERTIES” (priority 1995, published 2002)", "key": {"horse thrombin": {"system": "horse thrombin", "experiment": "Thrombin time (citrate plasma, sphere coagulometer)", "type": "biochemical", "conditions": "control thrombin time ca 24 seconds", "method": "A common test in clinical coagulation diagnostics is the thrombin time. This parameter detects the action of thrombin on fibrinogen and the formation of blood clots. Inhibitors of thrombin result in an increased thrombin time\nIn order to obtain plasma 9 parts fresh blood from healthy donors are mixed with one part sodium citrate solution (0 11 mol/l) and centrifuged at ca 3000 rpm for 10 min at room temperature, The plasma was removed by pipette and can be stored for ca 8 h at room temperature.\n200 μl citrate plasma was incubated for 2 min at 37° C. in a sphere coagulometer (KC10 from the Amelung-Company). 10 μl dimethylsulfoxide (DMSO) or a solution of the active substance in DMSO was added to 190 μl preheated thrombin reagent (Boehringer Mannheim, GmbH. contains ca. 3 U/ml horse thrombin and […]) A stopwatch was started when this 200 μl solution was added to the plasma and the time point at which coagulation starts was determined In the control measurements the thrombin time was ca 24 seconds and was increased by the compound of example 3 depending on the concentration (test concentration/increase of thrombin time 5 μM>300*sec: 0 5 μM/96 sec. 0 05 μM/9 sec) [* the experiment was stopped after 5 minutes]"}, "[1]": {"target": "T1, bovine pancreatic trypsin (Bos taurus, UniProt P00760)", "T1 construct": "purchased Sigma; host or cells: bovine pancreas", "T1 sequence (P00760 24-246)": "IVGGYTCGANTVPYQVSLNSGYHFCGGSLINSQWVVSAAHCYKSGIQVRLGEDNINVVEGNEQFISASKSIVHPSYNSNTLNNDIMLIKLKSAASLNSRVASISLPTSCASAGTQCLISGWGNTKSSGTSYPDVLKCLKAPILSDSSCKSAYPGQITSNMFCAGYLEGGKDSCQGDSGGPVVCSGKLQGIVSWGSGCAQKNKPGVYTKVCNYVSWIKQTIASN", "experiment": "Inhibition of trypsin", "type": "biochemical", "conditions": "measured as described for thrombin, Km=45 μM, read-out: inhibition constant Ki", "method": "10 mg bovine pancreatic trypsin (Sigma) was dissolved in […] hydrochloric acid and stored in a refrigerator 20 μl thereof was admixed with 980 ul 1 mM hydrochloric acid. 25 μl thereof was used for each measurement. The measurement was carried out as described for thrombin. Km=45 μM."}, "[2]": {"target": "isolated activated GpIIb/IIIa receptor (Homo sapiens, UniProt P05106+P08514)", "sequence (P08514 32-887 limits assumed)": "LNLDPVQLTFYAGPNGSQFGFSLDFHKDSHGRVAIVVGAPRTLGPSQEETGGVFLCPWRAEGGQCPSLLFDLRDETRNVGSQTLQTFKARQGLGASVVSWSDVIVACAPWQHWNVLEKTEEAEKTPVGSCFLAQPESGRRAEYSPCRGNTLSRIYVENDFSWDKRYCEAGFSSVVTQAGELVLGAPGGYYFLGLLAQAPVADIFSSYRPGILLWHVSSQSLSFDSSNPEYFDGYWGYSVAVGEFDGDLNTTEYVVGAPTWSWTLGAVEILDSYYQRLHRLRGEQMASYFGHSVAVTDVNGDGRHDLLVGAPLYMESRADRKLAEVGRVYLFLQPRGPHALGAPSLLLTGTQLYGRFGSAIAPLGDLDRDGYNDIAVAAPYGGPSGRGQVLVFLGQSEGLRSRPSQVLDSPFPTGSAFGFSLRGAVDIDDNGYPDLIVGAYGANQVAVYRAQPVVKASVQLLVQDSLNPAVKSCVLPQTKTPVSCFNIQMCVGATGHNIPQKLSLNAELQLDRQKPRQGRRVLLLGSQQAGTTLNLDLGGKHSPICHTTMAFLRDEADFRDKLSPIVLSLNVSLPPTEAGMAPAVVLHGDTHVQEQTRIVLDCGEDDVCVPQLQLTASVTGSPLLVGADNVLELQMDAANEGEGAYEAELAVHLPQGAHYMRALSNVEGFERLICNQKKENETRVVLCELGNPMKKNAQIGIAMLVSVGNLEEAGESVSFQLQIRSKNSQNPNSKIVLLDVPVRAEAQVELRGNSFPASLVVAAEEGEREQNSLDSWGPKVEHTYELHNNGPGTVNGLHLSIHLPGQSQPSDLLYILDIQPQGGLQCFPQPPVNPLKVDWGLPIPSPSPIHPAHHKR", "sequence (P08514 891-1039 partner limits assumed)": "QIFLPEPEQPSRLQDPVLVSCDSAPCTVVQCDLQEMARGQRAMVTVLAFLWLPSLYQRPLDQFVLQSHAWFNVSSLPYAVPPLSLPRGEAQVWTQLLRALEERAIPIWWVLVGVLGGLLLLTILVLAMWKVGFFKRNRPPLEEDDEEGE", "sequence (P05106 27-788)": "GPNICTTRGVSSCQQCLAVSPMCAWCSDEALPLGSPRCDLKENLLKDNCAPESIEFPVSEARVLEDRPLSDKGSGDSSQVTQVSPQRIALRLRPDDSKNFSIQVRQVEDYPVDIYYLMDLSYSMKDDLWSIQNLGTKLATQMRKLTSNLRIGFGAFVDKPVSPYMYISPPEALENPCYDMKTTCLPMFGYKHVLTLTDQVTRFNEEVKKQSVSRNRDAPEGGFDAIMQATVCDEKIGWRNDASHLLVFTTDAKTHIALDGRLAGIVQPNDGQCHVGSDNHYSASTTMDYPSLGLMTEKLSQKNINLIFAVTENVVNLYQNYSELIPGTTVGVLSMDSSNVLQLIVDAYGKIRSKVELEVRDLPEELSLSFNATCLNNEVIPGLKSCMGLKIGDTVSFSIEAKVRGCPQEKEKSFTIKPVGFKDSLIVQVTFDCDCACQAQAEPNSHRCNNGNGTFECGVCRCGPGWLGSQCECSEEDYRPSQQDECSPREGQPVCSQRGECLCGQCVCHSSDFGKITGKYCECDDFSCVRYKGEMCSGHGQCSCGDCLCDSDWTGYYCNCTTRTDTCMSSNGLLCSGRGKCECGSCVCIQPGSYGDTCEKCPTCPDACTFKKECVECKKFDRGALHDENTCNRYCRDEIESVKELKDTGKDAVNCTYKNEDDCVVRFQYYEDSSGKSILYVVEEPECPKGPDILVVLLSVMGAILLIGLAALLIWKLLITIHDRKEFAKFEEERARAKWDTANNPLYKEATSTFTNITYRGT", "experiment": "GpIIb/IIIa fibrinogen ELISA", "conditions": "fibrinogen binding to coated GpIIb/IIIa receptor; read-out: gpIIb/IIIa-Inhibition IC50", "method": "The GpIlb/Illa fibrinogen Elisa is a modification of assays which are described in the following literature: Nachman, R. L. & Leung, L. L. K. (1982): J. Clin. Invest. 69: 263-269 and Wright, P. S. et al. (1993): Biochem. J. 293:263-267.\nMicrotitre plates were coated overnight with 2 μg/ml isolated activated GpIIb/IIIa receptor. After unbound receptor had been removed by washing several times the surface of the plates is blocked with 1% casein and it is washed again. The test substance is added at the required concentrations and the plates are incubated for 10 minutes while shaking. The natural ligand of the gpIIb/IIIa receptor, fibrinogen, is added. After incubating for 1 hour unbound fibrinogen is removed by washing several times and the bound fibrinogen is determined by means of a peroxidase-conjugated, anti-fibrinogen monoclonal antibody by measuring the optical density at 405 nm in an ELISA instrument. The inhibition of a fibrinogen-GpIIb/IIIa interaction results in a low optical density. The IC50 value was determined by a concentration/effect curve."}, "human thrombin": {"target": "T2, human thrombin (Homo sapiens, UniProt P00734)", "T2 construct": "purchased Sigma", "experiment": "Thrombin inhibition, kinetic measurement with substrate S-2238", "type": "biochemical", "conditions": "pH 7 5, 25° C., substrate H-(D)-Phe-Pro-Arg-pNA", "method": "The kinetic measurements were carried out in 0 1 M phosphate buffer which contained 0 2 M sodium chloride and 0 5 % polyethylene glycol 6000 at a pH=7 5 and 25° C. using the substrate H-(D)-Phe-Pro-Arg-pNA (S-2238 Kabi) and human thrombin (Sigma specific activity=2150 NIH-units/mg) in polystyrene semimicrocuvettes in a total volume of 1 ml\nSince the measurement curves obtained in both experiments were linear and parallel, the active substance of formula (I) is a rapid thombin inhibitor. The inhibition constant Ki was determined as follows The substrate was added at concentrations of 100 μM. 50 μM. 30 μM, 20 μM and at each substrate concentration a measurement was carried out without inhibitor and three measurements were carried out in the presence of various concentrations of the inhibitor of formula (I). The reactions were started by addition of thrombin. The increase in absorbance at 405 nm caused by the formation of p-nitroanilide was monitored for a time period of 12 min. Measurement points (time versus absorbance) were transferred to a PC at intervals of 20 sec. […] From one measurement series (constant inhibitor concentration, variable substrate concentrations) Km′ and Vmax were determined by a non-linear fit to the equation [formula]\nFinally Ki was determined from the total series of measurements by non-linear fit to the equation [formula]"}}, "data": [{"molecule": "HOOC—CH2-D-Cha-(N-cyclopentyl)-Gly-Adc [Example 3]", "values": [{"measurement": "increase of thrombin time", "setting": "horse thrombin; test concentration 0 05 μM", "value": 9, "unit": "s"}, {"measurement": "increase of thrombin time", "setting": "horse thrombin; test concentration 0 5 μM", "value": 96, "unit": "s"}, {"measurement": "increase of thrombin time", "setting": "horse thrombin; test concentration 5 μM, experiment stopped after 5 minutes", "value": "> 300", "unit": "s"}]}, {"molecule": "N=C(N)N1CC=C(CCNC(=O)[C@@H]2C[C@@H]3CC[C@@H](O)C[C@@H]3N2C(=O)[C@@H](Cc2ccccc2)NC(=O)[C@H](O)Cc2ccccc2)C1", "note": "[Example 1, D-Pla-D-Phe-L-Choi-Adc]", "values": [{"measurement": "Ki", "setting": "[1]", "value": 0.1, "unit": "µM"}]}, {"molecule": "N=C(N)N1CC=C(CC(N)C(=O)NCC(=O)N[C@@H](CC(=O)O)C(=O)N[C@@H](Cc2ccccc2)C(N)=O)C1", "note": "(stereo partly drawn) [Example 11, Ada-Gly-Asp-Phe-NH2]", "values": [{"measurement": "IC50", "setting": "[2]", "value": 12.8, "unit": "µM"}]}, {"molecule": "CN[C@H](Cc1ccccc1)C(=O)N1CCC[C@H]1C(=O)NCCC1=CCN(C(=N)N)C1", "note": "[Example 4]", "values": [{"measurement": "thrombin inhibition (in words)", "setting": "human thrombin", "value": "inhibits thrombin"}]}]}
